This note sets out measurements from PubChem BioAssay (NCI).

Common to all, as to assay: DTP human tumour cell line panel, 48 h
Assay [1] relates to 786-0 renal.
In assay [2] the test system is ACHN renal.
For assay [3], the system named is CAKI-1 renal.
The test system of assay [4] is HCT-15 colon.
Assay [5] relates to HL-60(TB) leukemia.
The subject of assay [6] is HS 578T breast.
The subject of assay [7] is NCI-H460 lung.
For assay [8], the system named is OVCAR-8 ovarian.
Assay [9] concerns TK-10 renal.
Assay [10] relates to UACC-257 melanoma.

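Five compound concentrations were applied to cells in 96-well plates for 48 hours; endpoints were derived by simple linear interpolation of the resulting dose-response curve. GI50: concentration for 50% inhibition of growth. TGI is the concentration that stops growth completely.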

Turning to `O=C(CCCN1CC=C(n2c(=O)[nH]c3ccccc32)CC1)c1ccc(F)cc1`, the GI50 in [1] is 29.3 µM; in assay [2] it was 45.6 µM; in assay [3], 21.7 µM; in assay [4], 37.4 µM; in assay [5], 24.3 µM; in [6] it was 24 µM. In addition, the GI50 is 35.2 µM in assay [7], 32.9 µM in assay [8], 87 µM in assay [9] and 60.2 µM in assay [10]. Besides, the TGI is over 100 µM in assay [1]; over 100 µM in [2]; 72.5 µM in [3]; over 100 µM in [4]; 67.4 µM in assay [5]; 99.8 µM in assay [6]. Further, the total growth inhibition concentration (TGI) in assay [7], in assay [8], in [9] and in [10] was over 100 µM in each case.
Take `COc1cc(/C=C2\C(=O)Nc3ccc(F)cc32)cc(OC)c1OC`: the GI50 in assay [1] was 31.2 µM; in assay [2], 50 µM; in assay [3] it was 15.8 µM; in assay [4], 14.9 µM; in assay [5] it was 8.39 µM; in assay [6], 30.4 µM. The GI50 was 19.6 µM in [7], 64.2 µM in assay [8], 68.5 µM in [9] and 87.6 µM in [10]. For the same compound, the TGI in assay [1], in assay [2], in [3], in [4], in [5] and in assay [6] was over 100 µM in each case. Also, the concentration for total growth inhibition (TGI) in assay [7], in assay [8], in [9] and in assay [10] was over 100 µM throughout.
For the compound `O=C1/C(=C\c2cccn2Cc2ccccc2)c2ccccc2N1c1c(Cl)cccc1Cl`, the GI50 in [1] is over 100 µM; in [2], 7.9 µM; in assay [3], over 28.9 µM; in assay [4], 0.885 µM; in assay [5], over 100 µM; in assay [6], over 100 µM. Moreover, the GI50 in assay [7] is 4.43 µM; in [8], over 100 µM; in assay [9], 0.978 µM; in assay [10], over 100 µM. For the same compound, the concentration for total growth inhibition (TGI) in assay [1], in assay [2], in assay [3], in [4], in assay [5] and in assay [6] was over 100 µM in each case. Further, the TGI in [7], in assay [8], in assay [9] and in assay [10] was over 100 µM each time.
For the compound `Cc1ccc(Nc2nc(N)c(C(=O)c3ccc(C#N)cc3)s2)cc1`, the GI50 in assay [1] is 0.529 µM; in assay [2], 0.587 µM; in assay [3], 0.402 µM; in assay [4], 0.202 µM; in [5], 0.288 µM; in assay [6], 0.546 µM. In addition, the 50% growth inhibitory concentration (GI50) is 0.389 µM in [7], 0.644 µM in assay [8], 10.4 µM in assay [9] and 33.3 µM in [10]. The TGI in [1] was over 49.8 µM; in [2], over 80.5 µM; in assay [3], 25 µM; in assay [4] it was over 100 µM; in assay [5], over 61.7 µM; in assay [6], over 100 µM. Besides, the concentration for total growth inhibition (TGI) in [7] was over 100 µM; in assay [8], over 100 µM; in [9], over 78.8 µM; in assay [10], over 100 µM.
For the compound `NC(N)=N/N=C/c1cc(Cl)cc(Cl)c1O`, the TGI is over 100 µM in assay [1]; over 100 µM in assay [2]; over 100 µM in assay [3]; 58.9 µM in assay [4]; over 100 µM in assay [5]; over 100 µM in [6]. The concentration for total growth inhibition (TGI) in [7], in [8], in [9] and in assay [10] was over 100 µM each time.

What is called GI50 is the concentration that inhibits growth by half. Usually TGI stands for the concentration at which net growth stops. Higher therefore signals less potent growth arrest.
